# Test results as given in PMC12736255, “Reinvestigating Pyrrol-2-One-Based Compounds: From Antimicrobial Agents to Promising Antitumor Candidates” (Pharmaceuticals, 2025).
# Marks after values point to notes of the source that are not given here.
# Key:
# [1] = tested on: EKVX; assay: NCI-60 single-dose screen; format: cell-based, human; settings: 10^–5 M; for inhibition at 10 µM: Homo sapiens, read-out: GI (%)
# Text: (§1) In the next step, all synthesized compounds were electronically submitted and accepted for testing to the National Cancer Institute (NCI) platform, for the single dose (10^−5 M) screening against a panel of 60 human tumor cell lines, representing leukemia, melanoma, and cancers of the lung, colon, central nervous system, ovary, kidney, prostate, and breast. The results are summarized in Table 2, with the best values highlighted in red (Figures S1–S14).
# [2] = tested on: NCI-H226; assay: NCI-60 single-dose screen; format: cell-based, human; settings: NCI-H226, 10^–5 M; for inhibition at 10 µM: Homo sapiens, read-out: GI (%)
# Text: as §1
# [3] = tested on: A498; assay: NCI-60 single-dose screen; format: cell-based; settings: Homo sapiens; A498, 10^–5 M; read-out: GI (%)
# Method in brief: (§2)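 Human tumor cells, 60-line NCI panel; compound dosed only at 10^−5 M.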
# [4] = tested on: DU-145; assay: NCI-60 single-dose screen; format: cell-based; settings: Homo sapiens; DU-145, 10^–5 M; read-out: GI (%)
# Method in brief: as §2
# [5] = tested on: HCC-2998; assay: NCI-60 single-dose screen; format: cell-based; settings: Homo sapiens; HCC-2998, 10^–5 M; read-out: GI (%)
# Method in brief: as §2
# [6] = tested on: MALME-3M; assay: NCI-60 single-dose screen; format: cell-based; settings: Homo sapiens, 10^–5 M, read-out: GI (%)
# Method in brief: as §2
# [7] = tested on: MCF7; assay: NCI-60 single-dose screen; format: cell-based; settings: Homo sapiens; MCF7, 10^–5 M; read-out: GI (%)
# Method in brief: as §2
# [8] = tested on: MDA-MB-435; assay: NCI-60 single-dose screen; format: cell-based; settings: Homo sapiens; MDA-MB-435, 10^–5 M; read-out: GI (%)
# Method in brief: as §2
# [9] = tested on: MOLT-4; assay: NCI-60 single-dose screen; format: cell-based; settings: Homo sapiens; MOLT-4, 10^–5 M; read-out: GI (%)
# Method in brief: as §2
# [10] = tested on: SF-268; assay: NCI-60 single-dose screen; format: cell-based; settings: Homo sapiens; SF-268, 10^–5 M; read-out: GI (%)
# Method in brief: as §2
# [11] = tested on: SK-MEL-28; assay: NCI-60 single-dose screen; format: cell-based; settings: Homo sapiens; SK-MEL-28, 10^–5 M; read-out: GI (%)
# Method in brief: as §2
# [12] = tested on: SK-MEL-2; assay: NCI-60 single-dose screen; format: cell-based; settings: Homo sapiens; SK-MEL-2, 10^–5 M; read-out: GI (%)
# Method in brief: as §2
# [13] = tested on: SN12C; assay: NCI-60 single-dose screen; format: cell-based; settings: Homo sapiens, 10^–5 M, read-out: GI (%)
# Method in brief: as §2
# [14] = tested on: SW-620; assay: NCI-60 single-dose screen; format: cell-based; settings: Homo sapiens; SW-620, 10^–5 M; read-out: GI (%)
# Method in brief: as §2
# [15] = tested on: TK-10; assay: NCI-60 single-dose screen; format: cell-based; settings: Homo sapiens; TK-10, 10^–5 M; read-out: GI (%)
# Method in brief: as §2
# [16] = tested on: LN-229; assay: CellTiter-Glo 2.0 cytotoxicity, glioblastoma; format: cell-based, human; settings: LN-229, 24 h
# Protocol: (§3) Cytotoxicity of compounds was assessed using the CellTiter-Glo® 2.0 Assay (Promega, Madison, WI, USA) on human gingival fibroblasts (HGF), osteosarcoma (HOS and MG-63) and glioblastoma (LN-229 and U-118MG) cells, according to the manufacturer’s instructions. HGF, HOS, MG-63 and U-118MG cells were purchased from Cytion GmbH, Eppelheim, Germany, and LN-229 (CRL-2611) from the American Type Culture Collection (ATCC), Manassas, VA, USA. Cells were seeded (50,000 cells/mL—HGF, 100,000 cells/mL—tumor cells) into 96-well opaque white tissue culture-treated plates and allowed to adhere overnight in αMEM medium with 10% fetal bovine serum and 1% antibiotic-antimycotic (all from PAN—Biotech GmbH, Aidenbach, Germany). Cells were incubated with compounds (10 or 50 µM) for 24 h, then CellTiter-Glo® reagent was added and luminescence was recorded using a FLUOstar® Omega microplate reader (BMG LABTECH, Ortenberg, Germany). The experiments were carried out in triplicate, and the viability of treated cells was expressed as a percentage of the viability of control cells (untreated). Data were represented as means ± standard deviations. Stock solutions of compounds were prepared in DMSO, then diluted in complete cell culture media. […] Data were analyzed with independent two-tailed (Student’s) t-test, considering p < 0.05 statistically significant.
# [17] = tested on: U-118MG; assay: CellTiter-Glo 2.0 cytotoxicity, glioblastoma; format: cell-based, human; settings: 50 µM, 24 h
# Protocol: as §3
# [18] = tested on: HT29; assay: NCI-60 5-dose screen; format: cell-based, human
# [19] = tested on: SW-620; assay: NCI-60 5-dose screen; format: cell-based, human
# [20] = tested on: U251; assay: NCI-60 5-dose screen; format: cell-based, human
# [21] = tested on: OVCAR-4; assay: NCI-60 5-dose screen; format: cell-based, human
# [22] = tested on: CAKI-1; assay: NCI-60 5-dose screen; format: cell-based, human
# [23] = tested on: HS 578T; assay: NCI-60 5-dose screen; format: cell-based, human
# [24] = tested on: PC-3; assay: NCI-60 5-dose screen; format: cell-based, human
# [25] = tested on: BT-549; assay: NCI-60 single-dose screen; format: cell-based, human; settings: BT-549, 10^–5 M
# Text: as §1
# [26] = tested on: HOP-62; assay: NCI-60 single-dose screen; format: cell-based, human; settings: HOP-62, 10^–5 M
# Text: as §1
# [27] = tested on: MDA-MB-468; assay: NCI-60 single-dose screen; format: cell-based, human; settings: MDA-MB-468, 10^–5 M
# Text: as §1
# [28] = tested on: SF-295; assay: NCI-60 single-dose screen; format: cell-based, human; settings: SF-295, 10^–5 M
# Text: as §1
# [29] = tested on: U251; assay: NCI-60 single-dose screen; format: cell-based, human; settings: U251, 10^–5 M
# Text: as §1
# [30] = tested on: UO-31; assay: NCI-60 single-dose screen; format: cell-based, human; settings: UO-31, 10^–5 M
# Text: as §1
# [31] = Homo sapiens, read-out: LC50 (the source's name)
structure (smiles),measurement,setting,value
O=C1C(Nc2ccc(I)cc2)=CC(c2ccc(C(F)(F)F)cc2)N1c1ccc(I)cc1 (stereo not drawn) [3e],GI (%),[1],100 ^d %
same,inhibition at 10 µM,[1],100%
same,inhibition at 10 µM,[2],100%
same,GI (%),[2],100 ^e %
same,inhibition at 10 µM,[3],100%
same,inhibition at 10 µM,[4],28%
same,inhibition at 10 µM,[5],0%
same,inhibition at 10 µM,[6],78%
same,inhibition at 10 µM,[7],44%
same,inhibition at 10 µM,[8],0%
same,inhibition at 10 µM,[9],75%
same,inhibition at 10 µM,[10],100%
same,inhibition at 10 µM,[11],31%
same,inhibition at 10 µM,[12],100%
same,inhibition at 10 µM,[13],60%
same,inhibition at 10 µM,[14],47%
same,inhibition at 10 µM,[15],100%
same,cytotoxicity (activity in words),[16],ineffective
same,cytotoxicity (activity in words),[17],moderate activity
same,TGI,[18],>100 µM
same,GI50,"[18]; Homo sapiens, HT-29",> 100 µM
same,CC50,"[18]; Homo sapiens, HT-29, read-out: LC50 (the source's name)",> 100 µM
same,TGI,[19],>100 µM
same,GI50,[19]; Homo sapiens,> 100 µM
same,CC50,[19]; [31],> 100 µM
same,TGI,[20],>100 µM
same,GI50,"[20]; Homo sapiens, U-251",8.97 µM
same,LC50 (50% lethal concentration),"[20]; Homo sapiens, U-251",> 100 µM
same,TGI,[21],4.41 µM
same,GI50,[21]; Homo sapiens,1.82 µM
same,CC50,[21]; [31],> 100 µM
same,TGI,[22],>100 µM
same,GI50,[22]; Homo sapiens,3.72 µM
same,CC50,[22]; [31],> 100 µM
same,TGI,[23],9.97 µM
same,GI50,[23]; Homo sapiens,3.45 µM
same,CC50,[23]; [31],> 100 µM
same,TGI,[24],>100 µM
same,GI50,[24]; Homo sapiens,9.99 µM
same,CC50,[24]; [31],> 100 µM
O=C1C(Nc2ccc(I)cc2)=CC(c2ccc(O)cc2)N1c1ccc(I)cc1 (stereo not drawn) [3g],GI (%),[25],54%
same,inhibition at 10 µM,[1],64%
same,GI (%),[26],5%
same,GI (%),[27],96%
same,inhibition at 10 µM,[2],47%
same,GI (%),[28],48%
same,GI (%),[29],29%
same,GI (%),[30],54%
same,inhibition at 10 µM,[3],48%
same,inhibition at 10 µM,[4],58%
same,inhibition at 10 µM,[5],53%
same,inhibition at 10 µM,[6],83%
same,inhibition at 10 µM,[7],83%
same,inhibition at 10 µM,[8],38%
same,inhibition at 10 µM,[9],100%
same,inhibition at 10 µM,[10],35%
same,inhibition at 10 µM,[11],42%
same,inhibition at 10 µM,[12],56%
same,inhibition at 10 µM,[13],60%
same,inhibition at 10 µM,[14],56%
same,inhibition at 10 µM,[15],43%
same,cytotoxicity (activity in words),[16],ineffective
same,cytotoxicity (activity in words),[17],moderate activity
